The values below come from ChEMBL document CHEMBL3745650, “Anti-inflammatory properties of quebecol and its derivatives” (Bioorg Med Chem Lett, 2016).

Data set [1] can be described thus: Antiinflammatory activity in PMA-differentiated human U937 cells assessed as inhibition of LPS-stimulated TNF-alpha secretion at 250 uM preincubated for 2 hrs followed by LPS-stimulation measured after 24 hrs by ELISA relative to control. In kind it is functional. As to conditions: U-937. Background: In an ELISA, binding on a coated surface is turned into a signal by an enzyme label.

A short description of data set [2]: Antiinflammatory activity in PMA-differentiated human U937 cells assessed as inhibition of LPS-stimulated TNF-alpha secretion at 500 uM preincubated for 2 hrs followed by LPS-stimulation measured after 24 hrs by ELISA relative to control. In kind it is functional. The settings on record: U-937.
Data set [3] is described as follows: Antiinflammatory activity in PMA-differentiated human U937 cells assessed as inhibition of LPS-stimulated IL-8 secretion at 125 uM preincubated for 2 hrs followed by LPS-stimulation measured after 24 hrs by ELISA relative to control. In kind it is functional. As to conditions: U-937.
Data set [4] is described as follows: Cytotoxicity against PMA-differentiated human U937 macrophages assessed as reduction in cell viability after 24 hrs by MTT assay. The settings on record: u-937, 24 h. In kind it is cell-based. (In general: Tetrazolium assays rely on reduction of a dye to a coloured formazan, in cell work by metabolically active cells.)
Data set [5] in a line: Antiinflammatory activity in human U937-3xkB-luc cells assessed as inhibition of LPS-induced NFkappaB activation at 20 uM preincubated for 30 mins followed by LPS-stimulation measured after 6 hrs by luciferase assay relative to control. In kind it is functional. The settings on record: U-937.
Data set [6] in a line: Antiinflammatory activity in PMA-differentiated human U937 cells assessed as inhibition of LPS-stimulated IL-8 secretion at 250 uM preincubated for 2 hrs followed by LPS-stimulation measured after 24 hrs by ELISA relative to control. As to conditions: U-937. Format: functional.
A short description of data set [7]: Antiinflammatory activity in PMA-differentiated human U937 cells assessed as inhibition of LPS-stimulated IL-1beta secretion at 125 uM preincubated for 2 hrs followed by LPS-stimulation measured after 24 hrs by ELISA relative to control. In kind it is functional. As to conditions: U-937.
Data set [8] is described as follows: Antiinflammatory activity in PMA-differentiated human U937 cells assessed as inhibition of LPS-stimulated IL-6 secretion at 250 uM preincubated for 2 hrs followed by LPS-stimulation measured after 24 hrs by ELISA relative to control. Format: functional. As to conditions: U-937.
Data set [9] is described as follows: Antiinflammatory activity in PMA-differentiated human U937 cells assessed as inhibition of LPS-stimulated IL-8 secretion at 500 uM preincubated for 2 hrs followed by LPS-stimulation measured after 24 hrs by ELISA relative to control. In kind it is functional. The settings on record: U-937.
Data set [10] can be described thus: Antiinflammatory activity in PMA-differentiated human U937 cells assessed as inhibition of LPS-stimulated IL-1beta secretion at 500 uM preincubated for 2 hrs followed by LPS-stimulation measured after 24 hrs by ELISA relative to control. Format: functional. The settings on record: U-937.
Data set [11] can be described thus: Antiinflammatory activity in human U937-3xkB-luc cells assessed as inhibition of LPS-induced NFkappaB activation at 5 uM preincubated for 30 mins followed by LPS-stimulation measured after 6 hrs by luciferase assay relative to control. In kind it is functional. The settings on record: U-937.
Data set [12] can be described thus: Antiinflammatory activity in human U937-3xkB-luc cells assessed as inhibition of LPS-induced NFkappaB activation at 100 uM preincubated for 30 mins followed by LPS-stimulation measured after 6 hrs by luciferase assay relative to control. In kind it is functional. The settings on record: U-937.
Data set [13] can be described thus: Antiinflammatory activity in PMA-differentiated human U937 cells assessed as inhibition of LPS-stimulated IL-6 secretion at 125 uM preincubated for 2 hrs followed by LPS-stimulation measured after 24 hrs by ELISA relative to control. As to conditions: U-937. In kind it is functional.
The nature of data set [14]: Antiinflammatory activity in PMA-differentiated human U937 cells assessed as inhibition of LPS-stimulated IL-6 secretion at 500 uM preincubated for 2 hrs followed by LPS-stimulation measured after 24 hrs by ELISA relative to control. As to conditions: U-937. In kind it is functional.
The nature of data set [15]: Antiinflammatory activity in PMA-differentiated human U937 cells assessed as inhibition of LPS-stimulated IL-1beta secretion at 250 uM preincubated for 2 hrs followed by LPS-stimulation measured after 24 hrs by ELISA relative to control. Format: functional. As to conditions: U-937.
A short description of data set [16]: Antiinflammatory activity in PMA-differentiated human U937 cells assessed as inhibition of LPS-stimulated TNF-alpha secretion at 125 uM preincubated for 2 hrs followed by LPS-stimulation measured after 24 hrs by ELISA relative to control. In kind it is functional. As to conditions: U-937.
Data set [17] is described as follows: Antiinflammatory activity in PMA-differentiated human U937 cells assessed as inhibition of LPS-stimulated IL-6 secretion at 62.5 uM preincubated for 2 hrs followed by LPS-stimulation measured after 24 hrs by ELISA relative to control. In kind it is functional. The settings on record: U-937.
The nature of data set [18]: Antiinflammatory activity in PMA-differentiated human U937 cells assessed as inhibition of LPS-stimulated IL-8 secretion at 62.5 uM preincubated for 2 hrs followed by LPS-stimulation measured after 24 hrs by ELISA relative to control. Format: functional. As to conditions: U-937.
A short description of data set [19]: Antiinflammatory activity in PMA-differentiated human U937 cells assessed as inhibition of LPS-stimulated IL-1beta secretion at 62.5 uM preincubated for 2 hrs followed by LPS-stimulation measured after 24 hrs by ELISA relative to control. Format: functional. As to conditions: U-937.
Data set [20] is described as follows: Antiinflammatory activity in PMA-differentiated human U937 cells assessed as inhibition of LPS-stimulated TNF-alpha secretion at 62.5 uM preincubated for 2 hrs followed by LPS-stimulation measured after 24 hrs by ELISA relative to control. Format: functional. The settings on record: U-937.

As usually defined, the inhibition is the change of the read-out against control, counted positive when it falls. As to `CCOC(=O)Cc1ccc(O)c(OC)c1`, the inhibition at 250 µM stood at 1.1% in data set [1], 0% in data set [6], 0% in data set [8] and 5.7% in [15]. Moreover, the inhibition at 500 µM in [2] was 6.9%; in data set [9] it was 0%; in data set [10] it was 0%; in [14], 0%. Besides, the inhibition at 125 µM came to 0% in data set [3], 2.7% in [7], 0% in data set [13] and 0.1% in [16]. The Activity in [4] was greater than 1000 µM. For the same compound, in data set [5], the inhibition at 20 µM was 21.8%. Besides, the inhibition at 5 µM in data set [11] worked out at 13.6%. In addition, the inhibition at 100 µM in data set [12] worked out at 14.6%.
`COc1cc(CCO)ccc1O`: the inhibition at 250 µM was 5.2% in data set [1], 0% in data set [6], 0% in [8] and 17.4% in data set [15]. The inhibition at 500 µM in data set [2] turned out to be 0%; in [9] it was 0%; in [10], 11.3%; in data set [14], 0%. The inhibition at 125 µM in [3] worked out at 0%; in [7], 24.4%; in data set [13] it was 0%; in data set [16], 6%. Besides, the Activity in data set [4] is greater than 1000 µM. In [5], the inhibition at 20 µM amounted to 2.6%. Also, in data set [11], the inhibition at 5 µM was 0%. The inhibition at 100 µM in data set [12] worked out at 8.3%.
Consider `CCOC(=O)C(c1ccc(O)c(OC)c1)C(c1ccc(O)c(OC)c1)c1ccc(O)c(OC)c1` (stereo unspecified), for which the inhibition at 250 µM in [1] worked out at 100%; in [6], 95%; in [8], 99.8%; in data set [15], 10.9%. The inhibition at 62.5 µM worked out at 4.8% in data set [17], 0% in data set [18], 0% in [19] and 8.5% in data set [20]. The inhibition at 500 µM in data set [2] worked out at 100%; in data set [9], 99.9%; in data set [10], 91.4%; in data set [14], 99.9%. Also, the inhibition at 125 µM in data set [3] stood at 94.9%; in data set [7] it was 1.2%; in data set [13], 89.9%; in data set [16], 15.7%. In [4], the Activity turned out to be 125 µM. Also, the inhibition at 20 µM in data set [5] was found to be 31.2%. For the same compound, the inhibition at 5 µM in [11] came to 24%. Moreover, the inhibition at 100 µM in [12] came out at 74.7%.
For `CCOC(=O)C(O)c1ccc(O)c(OC)c1` (stereo unspecified), the inhibition at 250 µM in data set [1], in data set [6], in data set [8] and in data set [15] was 0% throughout. The inhibition at 500 µM in data set [2], in data set [9], in [10] and in data set [14] was 0% each time. The inhibition at 125 µM in data set [3] was 0%; in data set [7], 4%; in [13] it was 0%; in [16], 0%. The Activity in data set [4] was greater than 1000 µM. For the same compound, the inhibition at 20 µM in data set [5] amounted to 6.5%. Moreover, the inhibition at 5 µM in data set [11] amounted to 16.4%. Moreover, in data set [12], the inhibition at 100 µM came to 0%.
As to `CCOC(=O)C(=C(c1ccc(O)c(OC)c1)c1ccc(O)c(OC)c1)c1ccc(O)c(OC)c1`, the inhibition at 250 µM in data set [1] was 100%; in [6], 99.7%; in data set [8] it was 99.9%; in data set [15], 85.2%. For the same compound, the inhibition at 62.5 µM in data set [17] turned out to be 27.3%; in data set [18] it was 22.7%; in data set [19], 0%; in [20], 15.9%. Also, the inhibition at 500 µM in data set [2] was 100%; in [9], 99.9%; in data set [10], 83.9%; in data set [14], 99.9%. Further, the inhibition at 125 µM in data set [3] came out at 99.5%; in data set [7] it was 26.2%; in data set [13], 97.2%; in [16], 92.3%. Also, the Activity in data set [4] is 62.5 µM. Further, the inhibition at 20 µM in [5] was 15.9%. Further, the inhibition at 5 µM in data set [11] was 12.8%. In addition, the inhibition at 100 µM in data set [12] was 79.9%.
Take `COc1cc(Cc2ccc(O)c(OC)c2)ccc1O`: the inhibition at 250 µM came to 15% in [1], 15% in data set [6], 62.3% in data set [8] and 33.4% in data set [15]. For the same compound, the inhibition at 500 µM in data set [2] was determined as 72.2%; in data set [9] it was 26.9%; in data set [10], 49.2%; in [14], 95.3%. Further, the inhibition at 125 µM in data set [3] stood at 7.1%; in [7] it was 3%; in [13], 4.3%; in data set [16], 7.6%. Further, the Activity in data set [4] worked out at 500 µM. In addition, in [5], the inhibition at 20 µM turned out to be 28.9%. For the same compound, the inhibition at 5 µM in data set [11] came to 11%. For the same compound, the inhibition at 100 µM in data set [12] was determined as 43.1%.
Consider `COc1cc(CC(=O)O)ccc1O` [HOMOVANILLIC ACID], for which the inhibition at 250 µM in data set [1] came out at 0%; in data set [6], 0%; in data set [8], 0%; in [15] it was 5.7%. Further, the inhibition at 500 µM is 0% in data set [2], 0% in [9], 3.6% in [10] and 0% in data set [14]. Besides, the inhibition at 125 µM in data set [3] worked out at 0%; in [7], 5.2%; in [13], 0%; in data set [16] it was 0%. Besides, in [4], the Activity was greater than 1000 µM. The inhibition at 20 µM in data set [5] amounted to 16.3%. For the same compound, in data set [11], the inhibition at 5 µM was found to be 24%. In addition, the inhibition at 100 µM in data set [12] stood at 22.9%.
Turning to `COc1cc(C(O)C(=O)O)ccc1O` (stereo unspecified), the inhibition at 250 µM in data set [1] amounted to 4.6%; in data set [6], 0%; in data set [8], 0%; in data set [15] it was 8%. For the same compound, the inhibition at 500 µM in data set [2] came out at 0%; in data set [9], 0%; in data set [10] it was 7.2%; in data set [14] it was 0%. Also, the inhibition at 125 µM was found to be 0% in data set [3], 7.4% in data set [7], 0% in data set [13] and 0% in data set [16]. For the same compound, in data set [4], the Activity was greater than 1000 µM. Besides, the inhibition at 20 µM in [5] turned out to be 5.7%. Further, the inhibition at 5 µM in data set [11] is 0%. In addition, the inhibition at 100 µM in [12] amounted to 16.3%.
